Columns and labels:
[1] = tested on: dystrophic flies (w; +/+; Dys^det1/Dys^det1); assay: Myofibril analysis of muscle wasting in dystrophic flies fed S1P promoting agents; type: in vivo, Drosophila; details: 217 μM in feed, three feeding cycles, 10-day old flies, three days after last feeding
Protocol: The effect of THI, a derivative of THI ((E)-1-(4-((1R,2S,3R)-1,2,3,4-tetrahydroxybutyl)-1H-imidazol-2-yl)-ethanone oxime) (“THI-oxime”), and a sphingosine analog (FTY720) on muscle wasting in dystrophic Drosopila flies was observed. Before feeding, 4 day old dystrophic flies (genotype: w; +/+; Dys^det1/Dys^det1) were placed in empty vials and starved for 6 hours. The flies were then provided access to one of a solution of 0.05 mg/mL (217 μM) 2-Acetyl-4(5)-tetrahydroxybutyl Imidazole (THI), or 217 μM FTY720, or 217 μM THI-oxime, in 5% light corn syrup in water for 16-18 hrs. After feeding, the flies were placed in new yeasted vials for 6-7 hrs. Flies were then transferred to empty vials with access to a 217 μM solution of THI, FTY720 or THI-oxime in a 5% light corn syrup in water for 16-18 hrs. This feeding cycle was repeated for a third time. After feeding for three cycles, the flies were placed in new yeasted vials. The 7-day old flies that had been administered the THI-oxime were analyzed immediately after the last feeding. The flies that has been administered THI and FTY720 were analyzed as 10-day old flies, three days after the last feeding with THI and FTY720.
Myofibril immunochemistry analysis was performed as disclosed herein. For each treatment group, 5 flies were analyzed, and 3 muscles per fly and 2 myofibrils per muscle were analyzed. Two tailed Student's t test was used to evaluate significance.
Flies were dipped in 95% EtOH and then dissected in 1×PBS (pH 7.4). Heads and abdomens were removed, and the thoraxes opened. Samples were stained using a modified ovary staining protocol 3. Samples were then fixed in 5% paraformaldehyde (Electron Microscopy Sciences) for 1 hour, rinsed in PBT (PBS/0.2% Triton X-100 v/v) 4 times, and then blocked for 1 hour in PBTB (PBT, 0.4% BSA w/v, 5% Normal Goat Serum v/v) at room temperature. […] For each genotype, 4-5 flies were analyzed, and 6-7 muscles per fly were analyzed.

mdx mice = assay: Histopathology of CTX injured and uninjured muscles of aged mdx mice after IP THI; type: in vivo, mouse
Protocol: Muscle repair in mdx mice become impaired during aging resulting in muscle atrophy and dystrophy. The effects of THI on the histopathology were assessed in injured and uninjured muscles from two groups of aged mdx mice (n=6, 11 month-old females and n=7, 16 month-old males). In this experiment, right TAs and quadriceps muscles were uninjured, while left counterparts were injured using CTX. The mdx mice were injected with THI, or PBS as a vehicle control, immediately following injury with CTX 5 times during a 3-day period. Injured and uninjured muscles were harvested 18 days post injury to survey the effects of THI on muscle repair. […] Injured muscles were lighter than uninjured muscles in vehicle treated mice, an approximate weight loss of 20% (*p<0.05).
The left TAs and quadriceps of six, 10 month old female mdx4cv mice were injected with 50 μl and 100 μl CTX respectively. Three mice were injected IP with 0.15 mg/ml THI in PBS, twice daily (injections 8 hours apart) immediately after and for the first three days following injury. The three remaining animals were injected IP with PBS as vehicle controls. 1% Evans Blue dye was injected IV on day 17 post CTX, to label persistently damaged (dye permeable) muscle fibers. Animals were euthanized 18 days post injury and muscles were frozen under liquid nitrogen cooled isopentane in optimal cutting temperature (OCT). All myofibers were measured for the minimum diameters on the cross-sections of mouse quadriceps muscle using image J software. 750˜850 myofibers were counted for three mice treated with PBS or THI with or without CTX injury.
All mouse muscles were frozen directly in OCT with liquid nitrogen cooled in isopentane and sections of 8 μm thickness were obtained. Tissue for x-gal staining, was fixed for 10 min with 2% formaldehyde/0.2% glutaraldehyde and incubated overnight at 37° C. with staining buffer (PBS with 1 mg/ml x-gal, 5 mM potassium ferricyanide, 5 mM potassium ferrocyanide, and 2 mM […] (all from Fisher). Oil Red-O and Picrosirius red staining were done following established protocols. For eMyHC staining, tissue was first fixed with 2% formaldehyde for 5 min, treated with streptavidin/avidin blocking kit (Vector labs), and blocked with IgG block from M.O.M kit (Vector Labs) for 5 hrs at 4° C. Following blockade, concentrated mouse anti-eMyHC (clone F1.652 received at 357 μg/ml IgG) obtained from the developmental studies hybridoma bank (DHSB, University of Iowa) was administered at 1:400 dilution, overnight at 4° C. The remainder of the staining was done following mouse-on-mouse (M.O.M) kit staining instructions. For laminin staining tissue was also fixed with 2% formaldehyde for 5 min, and then treated with polyclonal rabbit anti-laminin (Sigma) for 1 hr at a 1:400 dilution in PBS+1% BSA. Following washes, Alexa Fluor 488 conjugated goat anti-rabbit IgG (Invitrogen) was administered at 1:800 dilution for 1 hr. Controls omitting the primary antibody were included with all staining. Staining quantifications were all done using ImageJ v1.40 (Wayne Rasband, NIH) cell counter plugin (Kurt De Vos, University of Sheffield). Calculations, statistics, and graphs were generated with Microsoft Excel. Brightfield photographs were captured using either a Fisher Micromaster digital inverted or upright microscopes with Micron software. Fluorescent photographs were captured with a monochromatic camera using a Zeiss Axiovert 200 microscope. Individual fluorescent channels were colored and merged using Adobe Photoshop CS2. Brightness contrast levels were adjusted to increase visibility and reduce background in most photographs.
Both stainings were done using freshly frozen mdx muscles. Pax7 staining was done as outlined by Clever et al., with slight modification (Clever J L, et al. Am J Physiol Cell Physiol. 2010; 298:C1087-C1099). Sections were fixed overnight in 4% formaldehyde (from PFA powder) at 4° C. […]

[2] = 11MO and 16MO mdx mice, Oil Red-O
[3] = 11MO mdx mice, dye injected day 17 post injury
[4] = 11 month-old mdx mice, vs vehicle
[5] = aged mdx mice, 18 days post CTX injury, vs vehicle

Structure (SMILES): CC(=O)c1ncc([C@@H](O)[C@H](O)[C@H](O)CO)[nH]1 [THI, 1-[5-[(1R,2S,3R)-1,2,3,4-tetrahydroxybutyl]-1H-imidazol-2-yl]-ethanone]
- wild-type myofibrils [1]: approximately 67%
- ratio of fat deposition in injured TAs over uninjured contralateral TAs (mdx mice; [2]): significantly reduced in THI treated vs. control animals in 11MO (*) but not 16 MO mdx mice
- ratio of injured over uninjured fat deposits in quadriceps (mdx mice; [2]): significantly reduced in 16MO (#) but not in the 11MO mdx mice
- Evans Blue positive fibers in injured quadriceps over entire cross-sectional area (mdx mice; [3]): < 5
- Evans Blue positive fibers in uninjured contralateral quadriceps (mdx mice; [3]): almost zero
- mean number of satellite cells (Pax7+ nuclei) in limb muscles (TAs and Quadriceps) (mdx mice; [4]): significant increase
- minimum fiber diameter, uninjured and injured quadriceps and diaphragms (mdx mice; [4]): significant increase
- ratio of dry weight of CTX injured over uninjured quadriceps, normalized to body weight (mdx mice; 16 month-old mdx males, 18 days post injury): ratio close to one
- muscle fiber size, uninjured quadriceps (mdx mice; 16 month-old mdx males, vs vehicle): significant increase
- overall histological muscle morphology of injured muscles (mdx mice; aged mdx mice, 18 days post CTX injury): more organized
- average fat deposition in injured TAs (Oil Red-O) (mdx mice; [5]): significantly lower average fat deposition
- fibrosis in injured TAs and quadriceps muscles (Picrosirius Red) (mdx mice; [5]): significantly reduced fibrosis

From patent US20140051729A1, “COMPOSITIONS AND METHODS FOR TREATING DEGENERATIVE MUSCLE CONDITIONS” (University of Washington, priority 2011, published 2014)
